Measured values from patent publication US7511065B2, “Mixed lineage kinase modulators” (Eli Lilly and Company, priority 2002, dated 2009).

Each molecule was assayed against T1, MLK-7 (Homo sapiens, UniProt Q9NYL2) (assay: In vitro assay of purified MLK-7 kinase activity (33P transfer from ATP to myelin basic protein)). Conditions: recombinant GST-tagged MLK-7 at 1 nm, 30 uM ATP, 5 uM MBP substrate, 2 hours room temperature; read-out: MLK7 IC50.
T1 construct: GST; His tag; made in house; host or cells: Sf9 insect cells (baculovirus, pVL1392)
Format: biochemical
Source text: In Vitro Assay of Purified Mixed Lineage Kinase 7 (MLK-7) Activity:
Briefly, recombinant glutathione-s-transferase (GST) tagged MLK-7 is expressed in Sf9 cells using a recombinant baculovirus created using baculovirus transfer vector pVL1392 modified to contain a GST and histidine tag. The recombinant protein is purified over a glutathione column and subsequently used for in vitro kinase assays with myelin basic protein (MBP) as the substrate for phosphorylation. The in vitro kinase reaction is run with recombinant MLK-7 at 1 nm and various concentrations of test compound in a reaction mixture containing 2 mM DTT, 30 uM ATP, 5 mM MgCl2, 5 uM MBP, 4% DMSO, 5 uCi 33P in 44 mM HEPES, (pH 7.4). The reaction is carried out for 2 hours at room temperature and then stopped by the addition of phosphoric acid to 5.5%. The phosphorylated MBP is collected on a filter and radioactivity associated with the membrane measured using a scintillation counter. Inhibitors are identified by the ability to reduce the transfer of radioactive phosphate from ATP to MBP compared to controls run without test compound.
IC50 values, defined as the concentration of test compound required to decrease the transfer of radioactive phosphate from ATP to MBP by 50%, are then determined. Ki values (which refers to the dissociation constant of an enzyme-antagonist complex and serves as an index of ligand binding) for each respective test compound can also be calculated by application of the Cheng-Prusoff equation as described in Cheng et al., Relationship Between The Inhibition Constant (Ki) and The Concentration of Inhibitor Which Causes 50% Inhibition (IC50) of an Enzymatic Reaction, Biochem. Pharmacol., 22: […]; (1973).
Representative compounds of the present invention have an IC50 in the MLK-7 kinase assay of ≦10,000 nM Table I (see infra.) provides IC50 data from the afore mentioned MLK-7 kinase assay for a representative sample of the exemplified compounds of the present invention.

Molecule	IC50
CS(=O)(=O)c1ccc(-c2ccc3c(-c4c(-c5ccccn5)nn5c4CCC5)ccnc3c2)cc1 [Example 75, 7-(4-Methanesulfonylphenyl)-4-(2-pyridin-2-yl-5,6-dihydro-4H-pyrrolo[1,2-b]pyrazol-3-yl)quinoline Trifluoroacetic Acid]	≤ 100 nM
O=C(NCCN1CCOCC1)c1ccc(-c2ccc3c(-c4c(-c5ccccn5)nn5c4CCC5)ccnc3c2)cc1 [Example 132, N-(2-Morpholin-4-yl-ethyl)-4-[4-(2-pyridin-2-yl-5,6-dihydro-4H-pyrrolo[1,2-b]pyrazol-3-yl)-quinolin-7-yl]-benzamide]	≤ 100 nM
COCCOc1ccc(-c2ccc3c(-c4c(-c5ccccn5)nn5c4CCC5)ccnc3c2)cc1 [Example 118]	≤ 100 nM
CS(=O)(=O)Nc1cccc(-c2ccc3c(-c4c(-c5ccccn5)nn5c4CCC5)ccnc3c2)c1 [Example 15, N-{3-[4-(2-Pyridin-2-yl-5,6-dihydro-4H-pyrrolo[1,2-b]pyrazol-3-yl)-quinolin-7-yl]-phenyl}methanesulfomamide Trifluoroacetic Acid]	≤ 100 nM
4-[4-(2-Pyridin-2-yl-5,6-dihydro-4H-pyrrolo[1,2-b]pyrazol-3-yl]phenylamine Ditrifluoroacetic Acid [Example 10]	≤ 100 nM
CC(=O)Nc1cccc(-c2ccc3c(-c4c(-c5ccccn5)nn5c4CCC5)ccnc3c2)c1 [Example 37, N-{3-[4-(2-pyridin-2-yl-5,6-dihydro-4H-pyrrolo[1,2-b]pyrazol-3-yl)quinolin-7-yl]phenyl}-acetamide Trifluoroacetic Acid]	≤ 100 nM
Oc1ccc(-c2ccc3c(-c4c(-c5ccccn5)nn5c4CCC5)ccnc3c2)cc1 [Example 7, 4-[4-(2-Pyridin-2-yl-5,6-dihydro-4H-pyrrolo[1,2-b]pyrazol-3-yl)quinolin-7-yl]phenol Trifluoroacetic Acid]	≤ 100 nM
Cc1cc(F)ccc1-c1ccc2c(-c3c(-c4ccccn4)nn4c3CCC4)ccnc2c1 [Example 22, 7-(4-Fluoro-2-methylphenyl)-4-(2-pyridin-2-yl-5,6-dihydro-4H-pyrrolo[1,2-b]pyrazol-3-yl)quinoline Trifluoroacetic Acid]	≤ 1000 nM
CC(=O)Nc1ccc(-c2ccc3c(-c4c(-c5ccccn5)nn5c4CCC5)ccnc3c2)cc1 [Example 3]	≤ 100 nM
7-(4-Benzo[b]thiophen-3-yl-phenyl)-4-(2-pyridin-2-yl-5,6-dihydro-4H-pyrrolo[1,2-b]pyrazol-3-yl)-quinoline Trifluoroacetic Acid [Example 54]	≤ 1000 nM
C[S+]([O-])c1ccc(-c2ccc3c(-c4c(-c5ccccn5)nn5c4CCC5)ccnc3c2)cc1 (centres unmarked) [Example 38, 7-(4-Methanesulfinylphenyl)-4-(2-pyridin-2-yl-5,6-dihydro-4H-pyrrolo[1,2-b]pyrazol-3-yl)quinoline Trifluoroacetic Acid]	≤ 100 nM
CC(C)(C)SCCNC(=O)c1ccc(-c2ccc3c(-c4c(-c5ccccn5)nn5c4CCC5)ccnc3c2)cc1 (racemic) [Example 127, (rac) N-(2-tert-Butylsulfanyl-ethyl)-4-[4-(2-pyridin-2-yl-5,6-dihydro-4H-pyrrolo[1,2-b]pyrazol-3-yl)-quinolin-7-yl]-benzamide]	≤ 1000 nM
c1ccc(-c2nn3c(c2-c2ccnc4cc(-c5ccoc5)ccc24)CCC3)nc1 [Example 51, 7-Furan-3-yl-4-(2-pyridin-2-yl-5,6-dihydro-4H-pyrrolo[1,2-b]pyrazol-3-yl)quinoline Trifluoroacetic Acid]	≤ 100 nM
COc1ccc(-c2ccc3c(-c4c(-c5ccccn5)nn5c4CCC5)ccnc3c2)nn1.O=C(O)C(F)F [Example 84, 7-(6-Methoxypyridazin-3-yl)-4-(2-Pyridin-2-yl-5,6-dihydro-4H-pyrrolo[1,2-b]pyrazol-3-yl)quinoline Difluoroacetic Acid]	≤ 100 nM
c1ccc(-c2nn3c(c2-c2ccnc4cc(-c5ccc[nH]5)ccc24)CCC3)nc1 [Example 69, 4-(2-pyridin-2-yl-5,6-dihydro-4H-pyrrolo[1,2-b]pyrazol-3-yl)-7-(1H-pyrrol-2-yl)quinoline Ditrifluoroacetic Acid]	≤ 100 nM
O=C(c1ccc(-c2ccc3c(-c4c(-c5ccccn5)nn5c4CCC5)ccnc3c2)cc1)N1CCS(=O)(=O)CC1 [Example 133, (1,1-Dioxo-1λ^6-thiomorpholin-4-yl)-{4-[4-(2-pyridin-2-yl-5,6-dihydro-4H-pyrrolo[1,2-b]pyrazol-3-yl)-quinolin-7-yl]-phenyl}-methanone]	≤ 100 nM
COC(=O)c1cc(C(=O)OC)cc(-c2ccc3c(-c4c(-c5ccccn5)nn5c4CCC5)ccnc3c2)c1 [Example 80, 5-[4-(2-Pyridin-2-yl-5,6-dihydro-4H-pyrrolo[1,2-b]pyrazol-3-yl)quinolin-7-yl]isophthalic Acid Dimethyl Ester Trifluoroacetic Acid]	≤ 10000 nM
CC(C)NCCNC(=O)c1ccc(-c2ccc3c(-c4c(-c5ccccn5)nn5c4CCC5)ccnc3c2)cc1 [Example 126, N-(2-Isopropylamino-ethyl)-4-[4-(2-pyridin-2-yl-5,6-dihydro-4H-pyrrolo[1,2-b]pyrazol-3-yl)-quinolin-7-yl]-benzamide]	≤ 100 nM
O=C(O)c1cccc(-c2ccc3c(-c4c(-c5ccccn5)nn5c4CCC5)ccnc3c2)c1 [Example 43, 3-[4-(2-pyridin-2-yl-5,6-dihydro-4H-pyrrolo[1,2-b]pyrazol-3-yl)quinolin-7-yl]benzoic Acid Trifluoroacetic Acid]	≤ 100 nM
CC(C)(C)OC(=O)NCCCC[C@H](NC(=O)c1ccc(-c2ccc3c(-c4c(-c5ccccn5)nn5c4CCC5)ccnc3c2)cc1)C(=O)OC(C)(C)C [Example 131, 6-tert-Butoxycarbonylamino-2(S)-{4-[4-(2-pyridin-2-yl-5,6-dihydro-4H-pyrrolo[1,2-b]pyrazol-3-yl)-quinolin-7-yl]-benzoylamino}-hexanoic acid tert-butyl ester]	≤ 1000 nM
O=C(c1ccc(-c2ccc3c(-c4c(-c5ccccn5)nn5c4CCC5)ccnc3c2)cc1)N1CCSCC1 [Example 123, {4-[4-(2-Pyridin-2-yl-5,6-dihydro-4H-pyrrolo[1,2-b]pyrazol-3-yl)-quinolin-7-yl]-phenyl}-thiomorpholin-4-yl-methanone]	≤ 100 nM
CC(C)(C)OC(=O)N1CCCC(NC(=O)c2ccc(-c3ccc4c(-c5c(-c6ccccn6)nn6c5CCC6)ccnc4c3)cc2)C1 (centres unmarked) [Example 130, 3-{4-[4-(2-Pyridin-2-yl-5,6-dihydro-4H-pyrrolo[1,2-b]pyrazol-3-yl)-quinolin-7-yl]-benzoylamino}-piperidine-1-carboxylic Acid tert-Butyl Ester]	≤ 100 nM
Cc1cc(-c2ccc3c(-c4c(-c5ccccn5)nn5c4CCC5)ccnc3c2)ccc1F [Example 21, 7-(4-Fluoro-3-methylphenyl)-4-(2-pyridin-2-yl-5,5-dihydro-4H-pyrrolo[1,2-b]pyrazol-3-yl)quinoline Trifluoroacetic Acid]	≤ 1000 nM
c1ccc(-c2nn3c(c2-c2ccnc4cc(-c5cccnc5)ccc24)CCC3)nc1 [Example 35, 7-Pyridin-3-yl-4-(2-Pyridin-2-yl-5,6-dihydro-4H-pyrrolo[1,2-b]pyrazol-3-yl)quinoline Ditrifluoroacetic Acid]	≤ 100 nM
c1ccc(-c2nn3c(c2-c2ccnc4cc(-c5ccc(OCCCN6CCCCC6)cc5)ccc24)CCC3)nc1 [Example 112, 7-[4-(3-Piperdin-1-yl-propoxy)phenyl]-4-(2-Pyridin-2-yl-5,6-dihydro-4H-pyrrolo[1,2-b]pyrazol-3-yl)quinoline Ditrifluoroacetic Acid]	≤ 100 nM
NCCc1ccc(-c2ccc3c(-c4c(-c5ccccn5)nn5c4CCC5)ccnc3c2)cc1 [Example 76, 2-{4-[4-(2-pyridin-2-yl-5,6-dihydro-4H-pyrrolo[1,2-b]pyrazol-3-yl)quinolin-7-yl]phenyl}ethylamine Ditrifluoroacetic Acid]	≤ 100 nM
CC(C)(C)OC(=O)N1CCN(c2ccc3c(-c4c(-c5ccccn5)nn5c4CCC5)ccnc3c2)CC1 [Example 102, 4-[4-(2-Pyridin-2-yl-5,6-dihydro-4H-pyrrolo[1,2-b]pyrazol-3-yl)-quinolin-7-yl]-piperazine-1-carboxylic Acid tert-Butyl Ester]	≤ 10000 nM
CC(C)(C)OC(=O)CCNC(=O)c1ccc(-c2ccc3c(-c4c(-c5ccccn5)nn5c4CCC5)ccnc3c2)cc1 [Example 137, 3-{4-[4-(2-Pyridin-2-yl-5,6-dihydro-4H-pyrrolo[1,2-b]pyrazol-3-yl)-quinolin-7-yl]-benzoylamino}-propionic Acid tert-Butyl Ester]	≤ 100 nM
COc1ccc(-c2ccc3c(-c4c(-c5ccccn5)nn5c4CCC5)ccnc3c2)cc1 [Example 20, 7-(4-Methoxyphenyl)-4-(2-pyridin-2-yl-5,6-dihydro-4H-pyrrolo[1,2-b]pyrazol-3-yl)quinoline Trifluoroacetic Acid]	≤ 100 nM
